Results reported in patent US8138168B1 (Takeda Pharmaceutical Company Limited, priority 2007, dated 2012).

Each molecule was assayed against T1, Recombinant human renin (Homo sapiens, UniProt P00797) (assay: In vitro enzymatic activity assay of renin inhibitors (fluorogenic peptide substrate)). Conditions: read-out: IC50 of Exemplified Compounds Against Renin.
T1 construct: isolate the active form (residues 67-406); made in house; host or cells: FreeStyle 293-F cells (transient expression of pcDNA3.1(+)/hREN)
T1 sequence (P00797 67-406): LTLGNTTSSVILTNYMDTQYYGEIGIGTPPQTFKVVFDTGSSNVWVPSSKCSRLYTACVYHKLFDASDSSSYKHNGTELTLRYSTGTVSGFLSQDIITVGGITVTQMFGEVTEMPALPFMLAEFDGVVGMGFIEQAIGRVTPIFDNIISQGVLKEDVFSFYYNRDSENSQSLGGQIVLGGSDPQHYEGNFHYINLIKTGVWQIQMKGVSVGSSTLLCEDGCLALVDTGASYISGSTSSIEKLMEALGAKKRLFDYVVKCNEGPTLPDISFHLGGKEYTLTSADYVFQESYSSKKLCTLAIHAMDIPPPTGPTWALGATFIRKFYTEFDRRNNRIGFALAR
Assay type: biochemical
Outline: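 Recombinant human renin (3 nM final) pre-incubated 10 min at 37 °C with compounds in pH 7.4 Hepes/EDTA/DTT/0.1 mg/mL BSA/Brij35 buffer (optionally plus 2% BSA), 5% DMSO final; fluorogenic QXL520/HiLyteFluo488 peptide substrate added.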

**Q.** How did the IC50 turn out when `COCCCn1c([C@@H]2CCCN(C(=O)[C@@H]3CN(C(=O)c4cccc(OC)c4)C[C@H]3N)C2)nc2ccccc21` [Compound 421, ((3R,4S)-4-amino-1-(3-methoxybenzoyl)pyrrolidin-3-yl)((R)-3-(1-(3-methoxypropyl)-1H-benzo[d]imidazol-2-yl)piperidin-1-yl)methanone] was run?
**A.** The IC50 was greater than 1000 nM.

**Q.** How did the IC50 turn out when `COCCCn1c([C@@H]2CCCN(C(=O)[C@@H]3CN(C(=O)c4ccc(C(=O)OC)cc4)C[C@H]3N)C2)nc2ccccc21` [Compound 422, methyl 4-((3S,4R)-3-amino-4-((R)-3-(1-(3-methoxypropyl)-1H-benzo[d]imidazol-2-yl)piperidine-1-carbonyl)pyrrolidine-1-carbonyl)benzoate] was run?
**A.** Its IC50 is greater than 1000 nM.

**Q.** With `COCCCn1c([C@@H]2CCCN(C(=O)[C@@H]3CN(C(=O)N4CCOCC4)C[C@H]3N)C2)nc2ccccc21` [Compound 423, ((3R,4S)-4-amino-1-(morpholine-4-carbonyl)pyrrolidin-3-yl)((R)-3-(1-(3-methoxypropyl)-1H-benzo[d]imidazol-2-yl)piperidin-1-yl)methanone] as the molecule, how does the IC50 read?
**A.** The IC50 was greater than 1000 nM.

**Q.** `COCCCn1c([C@@H]2CCCN(C(=O)[C@@H]3CN(C(=O)c4ccccc4C(=O)OC)C[C@H]3N)C2)nc2ccccc21` [Compound 424, methyl 2-((3S,4R)-3-amino-4-((R)-3-(1-(3-methoxypropyl)-1H-benzo[d]imidazol-2-yl)piperidine-1-carbonyl)pyrrolidine-1-carbonyl)benzoate] was tested. Which IC50 did it give?
**A.** The IC50 was greater than 1000 nM.

**Q.** With `COCCCn1c([C@@H]2CCCN(C(=O)[C@@H]3CN(S(=O)(=O)c4c(F)cccc4F)C[C@H]3N)C2)nc2ccccc21` [Compound 426, ((3R,4S)-4-amino-1-(2,6-difluorophenylsulfonyl)pyrrolidin-3-yl)((R)-3-(1-(3-methoxypropyl)-1H-benzo[d]imidazol-2-yl)piperidin-1-yl)methanone] as the molecule, how does the IC50 read?
**A.** The IC50 was 100 to 1000 nM.

**Q.** `COCCCn1c([C@@H]2CCCN(C(=O)[C@@H]3CN(S(=O)(=O)c4ccccc4C#N)C[C@H]3N)C2)nc2ccccc21` [Compound 427, 2-((3S,4R)-3-amino-4-((R)-3-(1-(3-methoxypropyl)-1H-benzo[d]imidazol-2-yl)piperidine-1-carbonyl)pyrrolidin-1-ylsulfonyl)benzonitrile] was tested. Which IC50 did it give?
**A.** Its IC50 is greater than 1000 nM.

**Q.** How did the IC50 turn out when `COCCCn1c([C@@H]2CCCN(C(=O)[C@@H]3CN(S(=O)(=O)c4cccc(F)c4)C[C@H]3N)C2)nc2ccccc21` [Compound 428, ((3R,4S)-4-amino-1-(3-fluorophenylsulfonyl)pyrrolidin-3-yl)((R)-3-(1-(3-methoxypropyl)-1H-benzo[d]imidazol-2-yl)piperidin-1-yl)methanone] was run?
**A.** Its IC50 is 100 to 1000 nM.

**Q.** With `COCCCn1c([C@@H]2CCCN(C(=O)[C@@H]3CN(S(=O)(=O)c4cccc(NC(C)=O)c4)C[C@H]3N)C2)nc2ccccc21` [Compound 429, N-(3-((3S,4R)-3-amino-4-((R)-3-(1-(3-methoxypropyl)-1H-benzo[d]imidazol-2-yl)piperidine-1-carbonyl)pyrrolidin-1-ylsulfonyl)phenyl)acetamide] as the molecule, how does the IC50 read?
**A.** Its IC50 is less than 100 nM.

**Q.** Which IC50 does the source give for `COCCCn1c([C@@H]2CCCN(C(=O)[C@@H]3CN(S(=O)(=O)c4cccc(-c5ccnc(C)n5)c4)C[C@H]3N)C2)nc2ccccc21` [Compound 430, ((3R,4S)-4-amino-1-(3-(2-methylpyrimidin-4-yl)phenylsulfonyl)pyrrolidin-3-yl)((R)-3-(1-(3-methoxypropyl)-1H-benzo[d]imidazol-2-yl)piperidin-1-yl)methanone] here?
**A.** The IC50 was 100 to 1000 nM.

**Q.** With `COCCCn1c([C@@H]2CCCN(C(=O)[C@@H]3CN(S(=O)(=O)c4cccc(-c5nnc(C)o5)c4)C[C@H]3N)C2)nc2ccccc21` [Compound 431, ((3R,4S)-4-amino-1-(3-(5-methyl-1,3,4-oxadiazol-2-yl)phenylsulfonyl)pyrrolidin-3-yl)((R)-3-(1-(3-methoxypropyl)-1H-benzo[d]imidazol-2-yl)piperidin-1-yl)methanone] as the molecule, how does the IC50 read?
**A.** The IC50 was greater than 1000 nM.

**Q.** How did the IC50 turn out when `COCCCn1c([C@@H]2CCCN(C(=O)C[C@@H](N)COc3ccccc3C(=O)OC)C2)nc2ccccc21` [Compound 432, methyl 2-((R)-2-amino-4-((R)-3-(1-(3-methoxypropyl)-1H-benzo[d]imidazol-2-yl)piperidin-1-yl)-4-oxobutoxy)benzoate] was run?
**A.** Its IC50 is greater than 1000 nM.

**Q.** For `COCCCn1c([C@@H]2CCCN(C(=O)C[C@@H](N)COc3cccc(OC)c3)C2)nc2ccccc21` [Compound 433, (R)-3-amino-4-(3-methoxyphenoxy)-1-((R)-3-(1-(3-methoxypropyl)-1H-benzo[d]imidazol-2-yl)piperidin-1-yl)butan-l-one], which IC50 is on record?
**A.** The IC50 was greater than 1000 nM.

**Q.** How did the IC50 turn out when `COCCCn1c([C@@H]2CCCN(C(=O)C[C@@H](N)COc3nc4ccccc4[nH]3)C2)nc2ccccc21` [Compound 434, (R)-4-(1H-benzo[d]imidazol-2-yloxy)-3-amino-1-((R)-3-(1-(3-methoxypropyl)-1H-benzo[d]imidazol-2-yl)piperidin-1-yl)butan-1-one] was run?
**A.** Its IC50 is 100 to 1000 nM.

**Q.** For `COCCCn1c([C@@H]2CCCN(C(=O)C[C@H](N)Cc3ccc(-c4csc(N5CC[C@H](O)C5)n4)cc3)C2)nc2ccccc21` [Compound 435, (R)-3-amino-4-(4-(2-((S)-3-hydroxypyrrolidin-1-yl)thiazol-4-yl)phenyl)-1-((R)-3-(1-(3-methoxypropyl)-1H-benzo[d]imidazol-2-yl)piperidin-1-yl)butan-1-one], which IC50 is on record?
**A.** Its IC50 is less than 100 nM.

**Q.** For `COCCCn1c([C@@H]2CCCN(C(=O)C[C@H](N)Cc3ccc(-c4ccc(N5CCNC5=O)cc4)cc3)C2)nc2ccccc21` [Compound 436, 1-(4′-((R)-2-amino-4-((R)-3-(1-(3-methoxypropyl)-1H-benzo[d]imidazol-2-yl)piperidin-1-yl)-4-oxobutyl)biphenyl-4-yl)imidazolidin-2-one], which IC50 is on record?
**A.** The IC50 was less than 100 nM.

**Q.** For `COCCCn1c([C@@H]2CCCN(C(=O)C[C@H](N)Cc3ccc(-c4ccnc(O)c4)cc3)C2)nc2ccccc21` [Compound 437, (R)-3-amino-4-(4-(2-hydroxypyridin-4-yl)phenyl)-1-((R)-3-(1-(3-methoxypropyl)-1H-benzo[d]imidazol-2-yl)piperidin-1-yl)butan-1-one], which IC50 is on record?
**A.** The IC50 was less than 100 nM.

**Q.** How did the IC50 turn out when `COCCCn1c([C@@H]2CCCN(C(=O)C[C@H](N)Cc3ccc(-c4ccc5c(c4)NC(=O)CO5)cc3)C2)nc2ccccc21` [Compound 438, 6-(4-((R)-2-amino-4-((R)-3-(1-(3-methoxypropyl)-1H-benzo[d]imidazol-2-yl)piperidin-1-yl)-4-oxobutyl)phenyl)-2H-benzo[b][1,4]oxazin-3(4H)-one] was run?
**A.** The IC50 was less than 100 nM.

**Q.** `COCCCn1c([C@@H]2CCCN(C(=O)C[C@H](N)Cc3ccc(-c4ccc5c(c4)OCCN5C)cc3)C2)nc2ccccc21` [Compound 439, (R)-3-amino-1-((R)-3-(1-(3-methoxypropyl)-1H-benzo[d]imidazol-2-yl)piperidin-1-yl)-4-(4-(4-methyl-3,4-dihydro-2H-benzo[b][1,4]oxazin-7-yl)phenyl)butan-1-one] was tested. Which IC50 did it give?
**A.** The IC50 was less than 100 nM.

**Q.** How did the IC50 turn out when `COCCCn1c([C@@H]2CCCN(C(=O)C[C@H](N)Cc3ccc(-c4ccc(N5CCNC5=O)cc4)cc3)C2)nc2c(F)cccc21` [Compound 441, 1-(4′-((R)-2-amino-4-((R)-3-(4-fluoro-1-(3-methoxypropyl)-1H-benzo[d]imidazol-2-yl)piperidin-l-yl)-4-oxobutyl)biphenyl-4-yl)imidazolidin-2-one] was run?
**A.** Its IC50 is less than 100 nM.

**Q.** How did the IC50 turn out when `COCCCn1c([C@@H]2CCCN(C(=O)C[C@H](N)Cc3ccc(-c4ccc5c(c4)SCC(=O)N5)cc3)C2)nc2c(F)cccc21` [Compound 442, 7-(4-((R)-2-amino-4-((R)-3-(4-fluoro-1-(3-methoxypropyl)-1H-benzo[d]imidazol-2-yl)piperidin-1-yl)-4-oxobutyl)phenyl)-2H-benzo[b][1,4]thiazin-3(4H)-one] was run?
**A.** The IC50 was less than 100 nM.

**Q.** How did the IC50 turn out when `COCCCn1c([C@@H]2CCCN(C(=O)C[C@H](N)Cc3ccc(-c4ccc5c(c4)OCC(=O)N5)cc3)C2)nc2c(F)cccc21` [Compound 443, 7-(4-((R)-2-amino-4-((R)-3-(4-fluoro-1-(3-methoxypropyl)-1H-benzo[d]imidazol-2-yl)piperidin-1-yl)-4-oxobutyl)phenyl)-2H-benzo[b][1,4]oxazin-3(4H)-one] was run?
**A.** Its IC50 is less than 100 nM.

**Q.** `COCCCn1c([C@@H]2CCCN(C(=O)C[C@H](N)Cc3ccc(-c4ccnc(O)c4)cc3)C2)nc2c(F)cccc21` [Compound 444, (R)-3-amino-1-((R)-3-(4-fluoro-1-(3-methoxypropyl)-1H-benzo[d]imidazol-2-yl)piperidin-1-yl)-4-(4-(2-hydroxypyridin-4-yl)phenyl)butan-1-one] was tested. Which IC50 did it give?
**A.** Its IC50 is less than 100 nM.

**Q.** How did the IC50 turn out when `CC(=O)NCCn1c([C@@H]2CCCN(C(=O)C[C@H](N)Cc3ccc(-c4ccc(O)nc4)cc3)C2)nc2ccccc21` [Compound 445, N-(2-(2-((R)-1-((R)-3-amino-4-(4-(6-hydroxypyridin-3-yl)phenyl)butanoyl)piperidin-3-yl)-1H-benzo[d]imidazol-1-yl)ethyl)acetamide] was run?
**A.** The IC50 was 100 to 1000 nM.

**Q.** How did the IC50 turn out when `CC(=O)NCCn1c([C@@H]2CCCN(C(=O)C[C@H](N)Cc3ccc(-c4ccc(N)nc4)cc3)C2)nc2ccccc21` [Compound 446, N-(2-(2-((R)-1-((R)-3-amino-4-(4-(6-aminopyridin-3-yl)phenyl)butanoyl)piperidin-3-yl)-1H-benzo[d]imidazol-1-yl)ethyl)acetamide] was run?
**A.** The IC50 was 100 to 1000 nM.

**Q.** Which IC50 does the source give for `CN1CCOc2cc(-c3ccc(C[C@@H](N)CC(=O)N4CCC[C@@H](c5nc6ccccc6n5CCC(N)=O)C4)cc3)ccc21` [Compound 447, 3-(2-((R)-1-((R)-3-amino-4-(4-(4-methyl-3,4-dihydro-2H-benzo[b][1,4]oxazin-7-yl)phenyl)butanoyl)piperidin-3-yl)-1H-benzo[d]imidazol-1-yl)propanamide] here?
**A.** Its IC50 is 100 to 1000 nM.
